Experimental data reported in the NIST ThermoML archive (doi:10.1016/j.tca.2014.05.028).
Numbers after ± are expanded uncertainties.

Experiment: xn = mol fraction of the nth substance listed
Settings: 101 kPa, Liquid; for viscosity: Falling or rolling sphere viscometry; for mass density: Vibrating tube method

CCC[N+]1(C)CCCC1.[Br-] [1-methyl-1-propylpyrrolidinium bromide] + O
viscosity (298.15 K, x1 = 0.0315): 1.604 ± 0.097 mPa·s | viscosity (298.15 K, x1 = 0.0664): 2.896 ± 0.17 mPa·s | viscosity (298.15 K, x1 = 0.0983): 5.311 ± 0.32 mPa·s | viscosity (298.15 K, x1 = 0.1376): 8.527 ± 0.52 mPa·s | viscosity (298.15 K, x1 = 0.1685): 12.41 ± 0.75 mPa·s | viscosity (298.15 K, x1 = 0.2138): 20.56 ± 1.2 mPa·s | viscosity (298.15 K, x1 = 0.2382): 26.01 ± 1.6 mPa·s | viscosity (298.15 K, x1 = 0.27): 35.47 ± 2.1 mPa·s | viscosity (298.15 K, x1 = 0.3143): 50.7 ± 3.1 mPa·s | viscosity (298.15 K, x1 = 0.3535): 69.94 ± 4.3 mPa·s | mass density (298.15 K, x1 = 0.0315): 1060.85 ± 0.4 kg/m3 | mass density (298.15 K, x1 = 0.0664): 1111.9 ± 0.34 kg/m3 | mass density (298.15 K, x1 = 0.0983): 1147.67 ± 0.3 kg/m3 | mass density (298.15 K, x1 = 0.1376): 1178.4 ± 0.28 kg/m3 | mass density (298.15 K, x1 = 0.1685): 1196.91 ± 0.28 kg/m3 | mass density (298.15 K, x1 = 0.2138): 1217.36 ± 0.29 kg/m3 | mass density (298.15 K, x1 = 0.2382): 1225.96 ± 0.3 kg/m3 | mass density (298.15 K, x1 = 0.27): 1235.84 ± 0.32 kg/m3 | mass density (298.15 K, x1 = 0.3143): 1245.39 ± 0.35 kg/m3 | mass density (298.15 K, x1 = 0.3535): 1251.89 ± 0.38 kg/m3 | mass density (298.15 K, x1 = 1): 1259.96 ± 1.4 kg/m3 | viscosity (303.15 K, x1 = 0.0315): 1.412 ± 0.085 mPa·s | viscosity (303.15 K, x1 = 0.0664): 2.5 ± 0.15 mPa·s | viscosity (303.15 K, x1 = 0.0983): 4.504 ± 0.27 mPa·s | viscosity (303.15 K, x1 = 0.1376): 7.082 ± 0.43 mPa·s | viscosity (303.15 K, x1 = 0.1685): 10.2 ± 0.62 mPa·s | viscosity (303.15 K, x1 = 0.2138): 16.41 ± 0.99 mPa·s | viscosity (303.15 K, x1 = 0.2382): 20.59 ± 1.2 mPa·s | viscosity (303.15 K, x1 = 0.27): 27.62 ± 1.7 mPa·s | viscosity (303.15 K, x1 = 0.3143): 39.02 ± 2.4 mPa·s | viscosity (303.15 K, x1 = 0.3535): 53.25 ± 3.2 mPa·s | mass density (303.15 K, x1 = 0.0315): 1058.76 ± 0.4 kg/m3 | mass density (303.15 K, x1 = 0.0664): 1109.17 ± 0.34 kg/m3 | mass density (303.15 K, x1 = 0.0983): 1144.55 ± 0.29 kg/m3 | mass density (303.15 K, x1 = 0.1376): 1175.05 ± 0.28 kg/m3 | mass density (303.15 K, x1 = 0.1685): 1193.47 ± 0.28 kg/m3 | mass density (303.15 K, x1 = 0.2138): 1213.89 ± 0.29 kg/m3 | mass density (303.15 K, x1 = 0.2382): 1222.51 ± 0.3 kg/m3 | mass density (303.15 K, x1 = 0.27): 1232.42 ± 0.32 kg/m3 | mass density (303.15 K, x1 = 0.3143): 1242.02 ± 0.34 kg/m3 | mass density (303.15 K, x1 = 0.3535): 1248.57 ± 0.37 kg/m3 | mass density (303.15 K, x1 = 1): 1255.92 ± 1.4 kg/m3 | viscosity (308.15 K, x1 = 0.0315): 1.216 ± 0.074 mPa·s | viscosity (308.15 K, x1 = 0.0664): 2.115 ± 0.13 mPa·s | viscosity (308.15 K, x1 = 0.0983): 3.451 ± 0.21 mPa·s | viscosity (308.15 K, x1 = 0.1376): 5.766 ± 0.35 mPa·s | viscosity (308.15 K, x1 = 0.1685): 8.237 ± 0.5 mPa·s | viscosity (308.15 K, x1 = 0.2138): 12.97 ± 0.78 mPa·s | viscosity (308.15 K, x1 = 0.2382): 16.15 ± 0.98 mPa·s | viscosity (308.15 K, x1 = 0.27): 21.43 ± 1.3 mPa·s | viscosity (308.15 K, x1 = 0.3143): 29.75 ± 1.8 mPa·s | viscosity (308.15 K, x1 = 0.3535): 40.25 ± 2.4 mPa·s | mass density (308.15 K, x1 = 0.0315): 1056.5 ± 0.4 kg/m3 | mass density (308.15 K, x1 = 0.0664): 1106.34 ± 0.34 kg/m3 | mass density (308.15 K, x1 = 0.0983): 1141.38 ± 0.29 kg/m3 | mass density (308.15 K, x1 = 0.1376): 1171.66 ± 0.28 kg/m3 | mass density (308.15 K, x1 = 0.1685): 1190.01 ± 0.28 kg/m3 | mass density (308.15 K, x1 = 0.2138): 1210.41 ± 0.29 kg/m3 | mass density (308.15 K, x1 = 0.2382): 1219.05 ± 0.3 kg/m3 | mass density (308.15 K, x1 = 0.27): 1228.99 ± 0.31 kg/m3 | mass density (308.15 K, x1 = 0.3143): 1238.64 ± 0.34 kg/m3 | mass density (308.15 K, x1 = 0.3535): 1245.24 ± 0.37 kg/m3 | mass density (308.15 K, x1 = 1): 1251.9 ± 1.4 kg/m3 | viscosity (313.15 K, x1 = 0.0315): 1.077 ± 0.065 mPa·s | viscosity (313.15 K, x1 = 0.0664): 1.841 ± 0.11 mPa·s | viscosity (313.15 K, x1 = 0.0983): 2.994 ± 0.18 mPa·s | viscosity (313.15 K, x1 = 0.1376): 4.851 ± 0.29 mPa·s | viscosity (313.15 K, x1 = 0.1685): 6.89 ± 0.42 mPa·s | viscosity (313.15 K, x1 = 0.2138): 10.66 ± 0.65 mPa·s | viscosity (313.15 K, x1 = 0.2382): 13.14 ± 0.8 mPa·s | viscosity (313.15 K, x1 = 0.27): 17.24 ± 1 mPa·s | viscosity (313.15 K, x1 = 0.3143): 23.61 ± 1.4 mPa·s | viscosity (313.15 K, x1 = 0.3535): 31.53 ± 1.9 mPa·s | mass density (313.15 K, x1 = 0.0315): 1054.11 ± 0.39 kg/m3 | mass density (313.15 K, x1 = 0.0664): 1103.44 ± 0.33 kg/m3 | mass density (313.15 K, x1 = 0.0983): 1138.15 ± 0.29 kg/m3 | mass density (313.15 K, x1 = 0.1376): 1168.23 ± 0.28 kg/m3 | mass density (313.15 K, x1 = 0.1685): 1186.52 ± 0.27 kg/m3 | mass density (313.15 K, x1 = 0.2138): 1206.9 ± 0.29 kg/m3 | mass density (313.15 K, x1 = 0.2382): 1215.56 ± 0.3 kg/m3 | mass density (313.15 K, x1 = 0.27): 1225.54 ± 0.31 kg/m3 | mass density (313.15 K, x1 = 0.3143): 1235.25 ± 0.34 kg/m3 | mass density (313.15 K, x1 = 0.3535): 1241.91 ± 0.37 kg/m3 | mass density (313.15 K, x1 = 1): 1247.91 ± 1.4 kg/m3 | viscosity (318.15 K, x1 = 0.0315): 0.972 ± 0.059 mPa·s | viscosity (318.15 K, x1 = 0.0664): 1.633 ± 0.099 mPa·s | viscosity (318.15 K, x1 = 0.0983): 2.652 ± 0.16 mPa·s | viscosity (318.15 K, x1 = 0.1376): 4.16 ± 0.25 mPa·s | viscosity (318.15 K, x1 = 0.1685): 5.833 ± 0.35 mPa·s | viscosity (318.15 K, x1 = 0.2138): 8.968 ± 0.54 mPa·s | viscosity (318.15 K, x1 = 0.2382): 10.98 ± 0.66 mPa·s | viscosity (318.15 K, x1 = 0.27): 14.27 ± 0.86 mPa·s | viscosity (318.15 K, x1 = 0.3143): 19.29 ± 1.2 mPa·s | viscosity (318.15 K, x1 = 0.3535): 25.42 ± 1.5 mPa·s | mass density (318.15 K, x1 = 0.0315): 1051.58 ± 0.39 kg/m3 | mass density (318.15 K, x1 = 0.0664): 1100.44 ± 0.33 kg/m3 | mass density (318.15 K, x1 = 0.0983): 1134.88 ± 0.29 kg/m3 | mass density (318.15 K, x1 = 0.1376): 1164.78 ± 0.28 kg/m3 | mass density (318.15 K, x1 = 0.1685): 1183 ± 0.27 kg/m3 | mass density (318.15 K, x1 = 0.2138): 1203.37 ± 0.29 kg/m3 | mass density (318.15 K, x1 = 0.2382): 1212.05 ± 0.3 kg/m3 | mass density (318.15 K, x1 = 0.27): 1222.08 ± 0.31 kg/m3 | mass density (318.15 K, x1 = 0.3143): 1231.85 ± 0.34 kg/m3 | mass density (318.15 K, x1 = 0.3535): 1238.59 ± 0.37 kg/m3 | mass density (318.15 K, x1 = 1): 1243.94 ± 1.4 kg/m3
